Here are results for two molecules from US20230285383A1, “TREATMENT OF SKIN DISEASES” (Ichilov Tech Ltd., priority 2020, published 2023).

One test relates to EGR1. In words: EGR1 expression by qRT-PCR in Hela cells. The test is classed as cell-based, human. The procedure:
(§1) HeLa cells were cultured in DMEM 4.5 g/l glucose medium containing 10% FCS, 1% L-glutamine and 1% penicillin and streptomycin (Biological Industries) and grown at 37° C. and 5% CO2.
(§2) Of note, when cells were incubated with CPT and CPT-11, they were grown in the appropriate medium with 0.1% FCS only.
(§3) RNA was extracted from cell cultures using an RNA extraction kit (Roche Diagnostics, Mahheim, Germany). cDNA was synthesized from 500 ng of total RNA using the Verso cDNA kit (Thermo Fisher Scientific, Waltham, Mass., USA) or qScript kit (Quanta Biosciences, Gaithersburg, Md., USA). cDNA PCR amplification was carried out using the Fast SYBR Green Master Mix in a StepOnePlus™ Real-Time PCR System (Applied Biosystems, Foster City, Calif., USA) with gene-specific intron-crossing oligonucleotide pairs listed in Table 1 (below). For quantification, standard curves were obtained using serially diluted cDNA amplified in the same qRT-PCR run. The melting temperature (Tm) of the amplified products was measured to confirm the specificity of the reaction conditions. […] Each sample was analyzed in triplicate. mRNA expression level for target gene was normalized to GAPDH. The results are based the amount of target, normalized to an endogenous reference (IACTB) and relative to a calibrator, as calculated by 2-ΔΔCT. […] The expression levels of target genes were expressed as mRNA relative units. […]

A further test deals with human psoriatic skin. In words: Chimeric mice carrying human psoriatic skin. The following applies: i.p., 10 days; CPT 3 mg/kg five times a week; CPT-11 30 or 50 mg/kg three times a week. It is filed as in vivo, SCID mice. The source says: Chimeric mice carrying human psoriatic skin were generated using SCID mice, 2-3 months of age. Animals were maintained in a pathogen-free animal facility. A psoriasis-like phenotype was induced in normal human skin grafted onto the mice by intradermal injection of natural killer/T cells derived from psoriatic patients as previously described [Gilhar A et al. J Invest Dermatol (2011) 131: 118-124].
(§4) Formaldehyde-fixed 5-μm paraffin-embedded sections from skin biopsies were deparaffinized and treated with 3% H2O2 in methanol for 15 minutes at room temperature, warmed in a microwave oven in citrate buffer in a pressure cooker for 25 minutes, and stained with a monoclonal anti-Ki67 antibody (Thermo Scientific) for 1 hour at room temperature. Following 3 washings (10 minutes each) with phosphate-buffered saline (PBS), the antibodies were imaged using the ABC technique (Zymed Laboratories, South San Francisco, Calif.) and the slides were counterstained with hematoxylin.
Epidermal thickness was defined as the distance between the granular layer and the basement membrane and was measured at 10 randomly selected locations for each biopsy using NIS-Elements BR 3.2 software (Nikon, NY USA). An image was taken and was manually measured in the software by selecting an upper and lower border, as defined above. The distance was measured in microns.
To assess the potential therapeutic role of the compounds of some embodiments of the invention, the two compounds were administered systemically (i.p) to chimeric mice carrying human psoriatic skin.
In short, SCID mice, 2-3 months of age, were maintained in a pathogen-free animal facility. A psoriasis-like phenotype was induced in normal human skin grafted onto the mice by intradermal injection of natural killer/T cells derived from psoriatic patients as previously described [Gilhar A et al. J Invest Dermatol (2011) 131: 118-124].
Two weeks after natural killer/T-cell injection (6 weeks after human skin grafting), mice were injected i.p. five times a week. Five groups of mice were treated as follows: one group of mice was injected five times a week with the vehicle (10% DMSO in […] was used as a vehicle control); a second group of mice was injected five times a week CPT (3 mg/kg); a third group of mice was injected three times a week CPT-11 (50 mg/kg); a fourth group of mice was injected three times a week CPT-11 (30 mg/kg); and a fifth group of mice, was treated with dexamethasone (DEX) cream applied 5 times a week on the graft, as positive control (DEX was expected to attenuate inflammation in this model). Each group included six mice, and the treatment was performed for a total of 10 days. The grafts were harvested from the five groups of mice, paraffin-embedded, stained for hematoxylin and eosin (H&E), analyzed and scored for the average improvement of the clinical and histological psoriasiform phenotype.

Test [1] deals with SAMD9. Nature of the test: SAMD9 expression by qRT-PCR in HeLa cells. The test is classed as cell-based, human. As to the method: as §1, §2, §3
The subject of test [2] is imiquimod-induced psoriasiform dermatitis. In words: Imiquimod-induced psoriasiform dermatitis in mice. The following applies: 7.5 mg/Kg i.p., biopsies at day 6, vs vehicle. It is filed as in vivo, Balb/c mice. The procedure: Balb/c mice (Harlan Laboratories Ltd, Jerusalem, Israel), 9 weeks of age, were maintained in a pathogen-free animal facility. Animal care and research protocols had been approved by the institutional committee for animal use. Imiquimod 5% (Perrigo, Israel) was topically applied to the mice on their upper backs.
as §4
Epidermal thickness was defined as the distance between the granular layer and the basement membrane and was measured at 10 randomly selected locations for each biopsy using NIS-Elements BR 3.2 software (Nikon, NY USA). An image was taken and was manually measured in the software by selecting an upper and lower border, as defined above. The distance was measured in microns. […]

Test [3] concerns SAMD9. In words: SAMD9 expression by qRT-PCR in primary fibroblasts. The test is classed as cell-based, human. The procedure: Primary fibroblasts were isolated from human adult skin and were grown in High Glucose DMEM, 10% Fetal Bovine Serum, L-glutamine and Pen-Strep. Medium was changed every 2-3 days. Cells were used at passage 2-3.
as §2
RNA was extracted from cell cultures using an RNA extraction kit (Roche Diagnostics, Mahheim, Germany). cDNA was synthesized from 500 ng of total RNA using the Verso cDNA kit (Thermo Fisher Scientific, Waltham, Mass., USA) or qScript kit (Quanta Biosciences, Gaithersburg, Md., USA). cDNA PCR amplification was carried out using the Fast SYBR Green Master Mix in a StepOnePlus™ Real-Time PCR System (Applied Biosystems, Foster City, Calif., USA) with gene-specific intron-crossing oligonucleotide pairs listed in Table 1 (below). For quantification, standard curves were obtained using serially diluted cDNA amplified in the same qRT-PCR run. The melting temperature (Tm) of the amplified products was measured to confirm the specificity of the reaction conditions. […] Each sample was analyzed in triplicate. mRNA expression level for target gene was normalized to GAPDH. The results are based the amount of target, normalized to an endogenous reference (IACTB) and relative to a calibrator, as calculated by 2-ΔΔCT. […]
SAMD9 expression was measured via qRT-PCR, in triplicates. […]
Background: Quantitative PCR measures a nucleic acid by following its amplification.

In test [4] the test system is SAMD9. Nature of the test: SAMD9 expression by qRT-PCR in TERC-transformed fibroblasts. It is filed as cell-based, human. The following applies: 5 μM, 24 hours, relative to DMSO. The procedure:
TERC-transformed fibroblasts were transformed with a pBABE-H2AGFP construct containing the human telomerase gene were cultured High Glucose DMEM, 10% FCS, L-glutamine and Pen-Strep (all cell culture regents from Biological Industries, Israel). Medium was changed every 2-3 days. Cells were used at passage 2-3.
as §2
as §3, with “GAPDH.” for “GAPDH. The results are based the amount of target, normalized to an endogenous reference (IACTB) and relative to a calibrator, as calculated by 2-ΔΔCT.”

The test system of another test is HeLa cells. Nature of the test: RNA sequence analysis of HeLa cells treated with CPT. It is filed as cell-based, human. The following applies: 10 μM, 48 hours. The procedure: FIG. 10A presents RNA-seq analysis of HeLa cells treated with CPT. HeLa cells were treated with 10 μM CPT or DMSO for 48 hours (three independent experiments). Total RNA was extracted and sent to RNA-seq. Volcano plot represents the number of genes that were differentially expressed. […] P-value for enrichment for genes belongs to a known psoriasis related pathogenic pathways (taken from IPA database) was calculated using hypergeometric distribution (using a background of 24190 genes).
HeLa cells were treated with 10 μM CPT or DMSO for 48 hours (three independent experiments). Total RNA was extracted and sent to RNA-sequencing.
The obtained data is presented in FIGS. 10A-B. FIG. 10A presents a volcano plot that show the number of statistically significant differential gene (DE) as response to CPT treatment. […] In addition, calculation of p-value for enrichment for genes belongs to a known psoriasis related pathogenic pathways (taken from IPA database) using hypergeometric distribution (using a background of 24190 genes). The table in FIG. 10B summarizes the number of genes in each group, the number of differentially expressed genes, the overlap, and the adjusted p-value (after correcting for multiple testing).

The mark [5] stands for this setting: Hela cells, 1-10 μM for 48 hours, or 10 μM for 48 and 72 hours.

On to `CCc1c2c(nc3ccc(OC(=O)N4CCC(N5CCCCC5)CC4)cc13)-c1cc3c(c(=O)n1C2)COC(=O)[C@]3(O)CC` [CPT-11, Irinotecan], for which the EGR1 expression result in the test on EGR1 (setting [5]) is recorded as “substantial down-regulation of EGR1”. Further, in the test with human psoriatic skin, the “clinical and histological psoriasiform phenotype” value was “significant clinical and histological attenuation of the psoriasiform phenotype”; the epidermal thickness entry is “significant decrease”; the inflammation index entry is on record as “significant decrease”; the “keratinocyte proliferation (Ki67)” value is “significant decrease”. For the same molecule, the SAMD9 expression result with SAMD9 [1] (setting [5]) is listed as “substantial induction of SAMD9 expression”.
For the molecule `CC[C@@]1(O)C(=O)OCc2c1cc1n(c2=O)Cc2cc3ccccc3nc2-1` [CPT, Camptothecin], in test [2], the epidermal thickness result is on record as “decrease in epidermal thickness” and the “index of proliferation (Ki67)” value is on record as “decrease”. Besides, the EGR1 expression result with EGR1 (10 μM, 24, 48 and 72 hours, result sentence prints primary fibroblast cells, method Hela cells) was “significantly down-regulated EGR1 expression”. In the test on human psoriatic skin, the “clinical and histological psoriasiform phenotype” value was “significant clinical and histological attenuation of the psoriasiform phenotype”; the epidermal thickness entry is “significant decrease”; the inflammation index result is on record as “significant decrease”; the “keratinocyte proliferation (Ki67)” value is recorded as “significant decrease”. Moreover, the SAMD9 expression entry in the test on SAMD9 [1] (HeLa cells, 5 μM, 24 hours, relative to DMSO) is reported as “significant induction of SAMD9 expression”. In addition, in the test on SAMD9 [3] (1 μM, 2 μM, 5 μM and 10 μM), the “SAMD9 expression, dose dependence” value was “up-regulate SAMD9 expression in a dose dependent manner”. Also, the SAMD9 expression result in the test with SAMD9 [3] (5 μM, 24 hours, relative to DMSO) is “significant induction of SAMD9 expression”. For the same molecule, the SAMD9 expression result in the test with SAMD9 [4] is “significant induction of SAMD9 expression”. Besides, in the test with HeLa cells (enrichment by hypergeometric distribution), the “expression of genes of psoriasis related pathways” value is listed as “significant turnover in expression of many genes belongs to psoriasis related pathways”. Further, in the test with HeLa cells (vs DMSO, FDR<0.01), the “number of genes downregulated” value is 1192 and the “number of genes upregulated” value was determined as 1664.
